In patent US8084466B2, “Bicyclic heteroaryl-substituted imidazoles as modulators of the histamine H4 receptor” (Janssen Pharmaceutica NV, priority 2007, dated 2011):
pKi: −log10 of the molar value.

Target: T1, human histamine H4 receptor (Homo sapiens, UniProt Q9H3N8)
T1 construct: expressed in transfected cells; host or cells: SK-N-MC cells or COS7 cells, transient transfection with pH4R; cell membranes
Assay: Binding Assay on Recombinant Human Histamine H4 Receptor
Conditions: competition binding with 3H-histamine (5 nM; KD 5 nM), membranes of SK-N-MC or COS7 cells expressing human H4 receptor; average of results; > = highest value tested
In short: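 Membranes from SK-N-MC or COS7 cells transiently transfected with H4R incubated 45 min at room temperature with ³H-histamine; nonspecific binding defined with 10,000 nM histamine. Filtration and scintillation counting. Ki from competition with 5 nM ³H-histamine, using a KD of 5 nM.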

Compound | pKi
Fc1cc(F)c2nc(-c3cc4ccn(CCCC5CCNCC5)c4cc3Cl)[nH]c2c1 [Example 99, 2-[6-Chloro-1-(3-piperidin-4-yl-propyl)-1H-indol-5-yl]-4,6-difluoro-1H-benzoimidazole] | 5.57
Cc1ccc2[nH]c(-c3cc4ccn(CCCC5CCNCC5)c4cc3Cl)nc2c1C [Example 100, 2-[6-Chloro-1-(3-piieridin-4-yl-propyl)-1H-indol-5-yl]-4,5-dimethyl-1H-benzoimidazole] | 5.48
Clc1ccc2[nH]c(-c3cc4ccn(CCCC5CCNCC5)c4cc3Cl)nc2c1 [Example 101, 5-Chloro-2-[6-chloro-1-(3-piperidin-4-yl-propyl)-1H-indol-5-yl]-1H-benzoimidazole] | 5.48
CN1CCC(CCCn2ccc3cc(-c4nc5cc(Cl)ccc5[nH]4)c(Cl)cc32)CC1 [Example 102, 5-Chloro-2-{6-chloro-1-[3-(1-methyl-piperidin-4-yl)-propyl]-1H-indol-5-yl}-1H-benzoimidazole] | < 5.00
Cc1ccc2[nH]c(-c3cc4ccn(CCCC5CCN(C)CC5)c4cc3Cl)nc2c1C [Example 103, 2-{6-Chloro-1-[3-(1-methyl-piperidin-4-yl)-propyl]-1H-indol-5-yl}-4,5-dimethyl-1H-benzoimidazole] | 5.56
CC(C)(C)c1ccc2[nH]c(-c3cccc4c3ccn4CCCCC3CCNCC3)nc2c1 [Example 105, 5-tert-Butyl-2-[1-(4-piperidin-4-yl-butyl)-1H-indol-4-yl]-1H-benzoimidazole] | 5.58
Cc1cccc2[nH]c(-c3ccc4ccn(CCCCC5CCNCC5)c4c3)nc12 [Example 107, 4-Methyl-2-[1-(4-piperidin-4-yl-butyl)-1H-indol-6-yl]-1H-benzoimidazole] | < 5.00
CC(C)(C)c1ccc2[nH]c(-c3ccc4ccn(CCCCC5CCNCC5)c4c3)nc2c1 [Example 109, 5-tert-Butyl-2-[1-(4-piperidin-4-yl-butyl)-1H-indol-6-yl]-1H-benzoimidazole] | 5.57
Fc1ccc2[nH]c(-c3cccc4c3ccn4CCCCC3CCNCC3)nc2c1F [Example 110, 4,5-Difluoro-2-[1-(4-piperidin-4-yl-butyl)-1H-indol-4-yl]-1H-benzoimidazole] | 5.48
Fc1ccc2[nH]c(-c3cccc4c3ccn4CCCCC3CCNCC3)nc2c1 [Example 115, 5-Fluoro-2-[1-(4-piperidin-4-yl-butyl)-1H-indol-4-yl]-1H-benzoimidazole] | < 5.00
Fc1cc(F)c2nc(-c3cccc4c3ccn4CCCCC3CCNCC3)[nH]c2c1 [Example 116, 4,6-Difluoro-2-[1-(4-piperidin-4-yl-butyl)-1H-indol-4-yl]-1H-benzoimidazole] | 5.48
Cc1cccc2[nH]c(-c3ccc4c(c3)ncn4CCCCC3CCNCC3)nc12 [Example 117, 4-Methyl-1′-(4-piperidin-4-yl-butyl)-1H,1′H-[2.5′]bibenzoimidazolyl] | < 5.00
Cc1ccc2[nH]c(-c3ccc4c(c3)ncn4CCCCC3CCNCC3)nc2c1C [Example 118] | 5.52
CN1CCC(CCCCn2cnc3cc(-c4nc5cc(F)ccc5[nH]4)ccc32)CC1 [Example 120, 5-Fluoro-1′-[4-(1-methyl-piperidin-4-yl)-butyl]-1H,1′H-[2,5′]bibenzoimidazolyl] | 5.48
Cc1ccc2[nH]c(-c3ccc4c(c3)ncn4CCCCC3CCN(C)CC3)nc2c1C [Example 121, 4,5-Dimethyl-1′-[4-(1-methyl-piperidin-4-yl)-butyl]-1H,1′H-[2,5′]bibenzoimidazolyl] | 5.52
Cc1ccc2[nH]c(-c3ccc4ncn(CCCCC5CCNCC5)c4c3)nc2c1C [Example 123, 4,5-Dimethyl-3′-(4-piperidin-4-yl-butyl)-1H,3′H-[2,5′]bibenzoimidazolyl] | 5.48
Fc1ccc2[nH]c(-c3ccc4ncn(CCCCC5CCNCC5)c4c3)nc2c1 [Example 124, 5-Fluoro-3′-(4-piperidin-4-yl-butyl)-1H,3′H-[2,5′]bibenzoimidazolyl] | < 5.00
Cc1ccc2[nH]c(-c3ccc4ncn(CCCCC5CCN(C)CC5)c4c3)nc2c1C [Example 125, 4,5-Dimethyl-3′-[4-(1-methyl-piperidin-4-yl)-butyl]-1H,3′H-[2,5′]bibenzoimidazolyl] | 5.57
CN1CCC(CCCCn2cnc3ccc(-c4nc5cc(F)ccc5[nH]4)cc32)CC1 [Example 126, 5-Fluoro-3′-[4-(1-methyl-piperidin-4-yl)-butyl]-1H,3′H [2,5′]bibenzoimidazolyl] | < 5.00
FC(F)(F)c1ccc2[nH]c(-c3cccc4c3c(Cl)cn4CCCCC3CCNCC3)nc2c1 [Example 130, 2-[3-Chloro-1-(4-piperidin-4-yl-butyl)-1H-indol-4-yl]-5-trifluoromethyl-1H-benzoimidazole] | < 5.00

The remaining compounds from weak to strong by pKi, led by results:

pKi | Compound
5.58 | Cc1ccc2[nH]c(-c3cccc4c3ccn4CCCCC3CCNCC3)nc2c1C [Example 106, 6,7-Dimethyl-2-[1-(4-piperidin-4-yl-butyl)-1H-indol-4-yl]-1H-benzoimidazole]
5.63 | Cc1cc(Cl)cc2[nH]c(-c3cccc4c3ccn4CCCCC3CCNCC3)nc12 [Example 104, 6-Chloro-4-methyl-2-[1-(4-piperidin-4-yl-butyl)-1H-indol-4-yl]-1H-benzoimidazole]
5.68 | c1ccc2cc3[nH]c(-c4cccc5c4ccn5CCCCC4CCNCC4)nc3cc2c1 [Example 127, 2-[1-(4-Piperidin-4-yl-butyl)-1H-indol-4-yl]-1H-naphtho[2,3-d]imidazole]
5.70 | Cc1cc(Cl)cc2[nH]c(-c3ccc4ccn(CCCCC5CCNCC5)c4c3)nc12 [Example 108]
5.70 | O=C(c1ccccc1)c1ccc2[nH]c(-c3cccc4c3c(Cl)cn4CCCCC3CCNCC3)nc2c1 [Example 129, {2-[3-Chloro-1-(4-piperidin-4-yl-butyl)-1H-indol-4-yl]-1H-benzoimidazol-5-yl}-phenyl-methanone]
5.78 | Cc1cccc2[nH]c(-c3ccc4ncn(CCCCC5CCNCC5)c4c3)nc12 [Example 122, 4-Methyl-3′-(4-piperidin-4-yl-butyl)-1H,3′H-[2,5′]bibenzoimidazolyl]
6.32 | Cc1cccc2[nH]c(-c3ccc4c(ncn4CCCC4CCNCC4)c3C)nc12 [Example 111, 4,4′-Dimethyl-1′-(3-piperidin-4-yl-propyl)-1H,1′H-[2,5′]bibenzoimidazolyl]
6.60 | Cc1cc(F)cc2[nH]c(-c3ccc4c(ncn4CCCC4CCNCC4)c3C)nc12 [Example 112, 6-Fluoro-4,4′-dimethyl-1′-(3-piperidin-4-yl-propyl)-1H,1′H-[2,5′]bibenzoimidazolyl]
6.69 | Cc1c(F)ccc2[nH]c(-c3ccc4c(ncn4CCCC4CCNCC4)c3C)nc12 [Example 114, 5-Fluoro-4,4′-dimethyl-1′-(3-piperidin-4-yl-propyl)-1H,1′H-[2,5′]bibenzoimidazolyl]
6.78 | Cc1c(Cl)ccc2[nH]c(-c3ccc4c(ncn4CCCC4CCNCC4)c3C)nc12 [Example 113, 5-Chloro-4,4′-dimethyl-1′-(3-piperidin-4-yl-propyl)-1H,1′H-[2,5′]bibenzoimidazolyl]
6.80 | Cc1cccc2[nH]c(-c3ccc4c(c3)CCN4CCCC3CCN(C)CC3)nc12 [Example 98, 4-Methyl-2-{1-[3-(1-methyl-piperidin-4-yl)-propyl]-2,3-dihydro-1H-indol-5-yl}-1H-benzoimidazole]
